In brackets after ≈: the same amount, converted by molar mass. Read-outs that look alike come from different tables or passages of the source.
Experiments:
[1] = Solubility of Compound A in solvents at 24° C. ± 3° C., 24 h; assay type: physicochemical; details: organic solvent or mixture, thermodynamic from solid
Experimental: (§1) This batch was prepared for use in the 28-day good laboratory practice (GLP) toxicology studies using the same synthetic scheme and processing employed in preparation of active pharmaceutical ingredient (API) to be used in the clinical drug product.

pKa of Compound A = assay type: physicochemical
Experimental: as §1

[2] = pH-Solubility Profile in buffers and simulated intestinal fluids; assay type: physicochemical; details: read-out: pH-Solubility Profile, Concentration
Experimental: as §1

[3] = Solubility in pH 6.5 simulated intestinal fluid (SIF); assay type: physicochemical
[4] = Solvent screen for dissolution of crystalline Compound A; assay type: physicochemical
Experimental: A screen was conducted to determine the optimum solvent for use purifying Compound A and for dissolution of crystalline Compound A prior to spray drying.

BCS designation = details: low solubility, low permeability

Work on `N#Cc1ccc(O[C@H]2CC[C@H](NC(=O)c3ccc(N4CCC(CN5CCN(c6cc7c(cc6F)C(=O)N(C6CCC(=O)NC6=O)C7=O)CC5)CC4)nn3)CC2)cc1Cl` (stereo partly drawn) [Compound A, N-[(1r,4r)-4-(3-chloro-4-cyanophenoxy)cyclohexyl]-6-[4-({4-[2-(2,6-dioxopiperidin-3-yl)-6-fluoro-1,3-dioxo-2,3-dihydro-1H-isoindol-5-yl]piperazin-1-yl}methyl)piperidin-1-yl]pyridazine-3-carboxamide] yielded a solubility at 24 h ([1]; Acetonitrile, read-out: Solubility, Conc. (mg/mL), 24 h) of 0.79 mg/mL (≈ 973 µM), a solubility at 24 h ([1]; Dichloromethane, read-out: Solubility, Conc. (mg/mL), 24 h) of 25.1 mg/mL (≈ 30900 µM) and a solubility at 24 h ([1]; Dichloromethane/methanol, read-out: Solubility, Conc. (mg/mL), 24 h) of 100 mg/mL (≈ 123000 µM). For the same molecule, the solubility at 24 h ([1]; Ethanol, read-out: Solubility, Conc. (mg/mL), 24 h) was 0.08 mg/mL (≈ 98.5 µM), the solubility at 24 h ([1]; Ethyl acetate, read-out: Solubility, Conc. (mg/mL), 24 h) was 0.2 mg/mL (≈ 246 µM) and the solubility at 24 h ([1]; Methanol, read-out: Solubility, Conc. (mg/mL), 24 h) was 0.29 mg/mL (≈ 357 µM). The solubility at 24 h ([1]; Polyethylene glycol-300, read-out: Solubility, Conc. (mg/mL), 24 h) was 2.8 mg/mL (≈ 3450 µM), the solubility at 24 h ([1]; Propylene glycol, read-out: Solubility, Conc. (mg/mL), 24 h) was 0.75 mg/mL (≈ 923 µM) and the pKa1 (pKa of Compound A) was “pKa1 = 6.8”. The pKa2 (pKa of Compound A) was “pKa2 = 2.7”, the solubility ([2]; aqueous buffer, pH 3 200 mM citrate buffer, pH of solution 3.0) was 0.015 mg/mL (≈ 18.5 µM) and the solubility ([2]; aqueous buffer, pH 5 200 mM citrate buffer, pH of solution 5.0) was 0.0005 mg/mL (≈ 0.616 µM). It also gave a solubility ([2]; aqueous buffer, pH 6.5 200 mM citrate buffer, pH of solution 6.5) of 0.0003 mg/mL (≈ 0.369 µM), a solubility ([2]; pH 5, fessif, Fed state simulated intestinal fluid, pH of solution 5.0) of 0.022 mg/mL (≈ 27.1 µM) and a solubility ([2]; pH 6.5, fassif, Fasted state simulated intestinal fluid, pH of solution 6.5) of 0.001 mg/mL (≈ 1.23 µM). The solubility ([2]; simulated gastric fluid, pH 1.2 HCl (aq), pH of solution 1.2) was 0.397 mg/mL (≈ 489 µM), the solubility ([3]; fassif, thermodynamic from solid, pH 6.5 simulated intestinal fluid (SIF), read-out: crystalline solid's solubility) was 0.0012 mg/mL (≈ 1.48 µM) and the solubility ([3]; pH 6.5, fassif, read-out: amorphous solubility in SIF) was 0.03 mg/mL (≈ 36.9 µM). For the same molecule, the Dissolution ([4]; DCM:Acetone, 53:47% wt., Solids 0.82 wt %, RT) was “Not dissolved”, the Dissolution ([4]; DCM:Ethanol, 92:8% wt., Solids 2.26 wt %, RT) was “Dissolved” and the Dissolution ([4]; DCM:Methanol, 70:30% wt., Solids 3.2 wt %, RT) was “Turbid solution”. For the same molecule, the Dissolution ([4]; DCM:Methanol, 80:20% wt., Solids 3.4 wt %, RT) was “Dissolved”, the Dissolution ([4]; DCM:Methanol, 90:10% wt., Solids 5 wt %, RT) was “Dissolved” and the Dissolution ([4]; DCM:Methanol, 90:10% wt., Solids 6.6 wt %, Temperature 30) was “Dissolved”. The Dissolution ([4]; DCM:Methanol, 90:10% wt., Solids 8.1 wt %, Temperature 35) was “Dissolved”, the Dissolution ([4]; DCM:Methanol, 95:5 wt. %., Solids 4.2 wt %, RT) was “Dissolved” and the Dissolution ([4]; DCM, Solids 0.6 wt %, RT) was “Not dissolved”. The Dissolution ([4]; Methanol, Solids 2.8 wt %, RT) was “Not dissolved”, the Dissolution ([4]; THF, Solids 0.7 wt %, RT) was “Not dissolved” and the BCS designation (BCS designation) was “BCS IV”.

— patent publication US12043612B2, “Methods of manufacturing a bifunctional compound, ultrapure forms of the bifunctional compound, and dosage forms comprising the same” (Arvinas Operations, Inc., priority 2020, dated 2024)
